In patent US20120157452A1, “1H-PYRAZOLO[3,4-B] PYRIDINE COMPOUNDS FOR INHIBITING RAF KINASE” (GENENTECH, INC., priority 2009, published 2012):

Target: T1, V600E full-length B-Raf (Homo sapiens, UniProt P15056, V600E)
T1 construct: made in house; host or cells: Sf9 insect cells (baculovirus)
Assay: B-Raf IC50 assay: incorporation of radio labeled phosphate from [γ-33P]ATP into FSBA-modified wild-type MEK
Format: biochemical
Description: Determining the activity of Raf in the sample is possible by a number of direct and indirect detection methods (US 2004/0082014). Activity of human recombinant B-Raf protein may be assessed in vitro by assay of the incorporation of radio labeled phosphate to recombinant MAP kinase (MEK), a known physiologic substrate of B-Raf, according to US 2004/0127496 and WO 03/022840. The activity/inhibition of V600E full-length B-Raf was estimated by measuring the incorporation of radio labeled phosphate from [γ-^33]ATP into FSBA-modified wild-type MEK (see Biological Example 1).
Activity of human recombinant B-Raf protein may be assessed in vitro by assay of the incorporation of radio labeled phosphate to recombinant MAP kinase (MEK), a known physiologic substrate of B-Raf, according to US 2004/0127496 and WO 03/022840. Catalytically active human recombinant B-Raf protein is obtained by purification from sf9 insect cells infected with a human B-Raf recombinant baculovirus expression vector.
The activity/inhibition of V600E full-length B-Raf was estimated by measuring the incorporation of radio labeled phosphate from [γ-^33]ATP into FSBA-modified wild-type MEK. The 30-μL, assay mixtures contained 25 mM Na Pipes, pH 7.2, 100 mM KCl, 10 mM MgCl2, 5 mM β-glycerophosphate, 100 μM Na Vanadate, 4 μM ATP, 500 nCi [γ-^33P]ATP, 1 μM FSBA-MEK and 20 nM V600E full-length B-Raf. Incubations were carried out at 22° C. in a Costar 3365 plate (Corning). Prior to the assay, the B-Raf and FSBA-MEK were preincubated together in assay buffer at 1.5× (20 μL of 30 nM and 1.5 μM, respectively) for 15 minutes, and the assay was initiated by the addition of 10 μL of […]. Following the 60-minute incubation, the assay mixtures were quenched by the addition of 100 μL of 25% TCA, the plate was mixed on a rotary shaker for 1 minute, and the product was captured on a Perkin-Elmer GF/B filter plate using a Tomtec Mach III Harvester. After sealing the bottom of the plate, 35 μL of Bio-Safe II (Research Products International) scintillation cocktail were added to each well and the plate was top-sealed and counted in a Topcount NXT (Packard).

[1] = 4 μM ATP, 60-minute incubation, representative data of multiple tests

T1 sequence (P15056 whole entry V600E): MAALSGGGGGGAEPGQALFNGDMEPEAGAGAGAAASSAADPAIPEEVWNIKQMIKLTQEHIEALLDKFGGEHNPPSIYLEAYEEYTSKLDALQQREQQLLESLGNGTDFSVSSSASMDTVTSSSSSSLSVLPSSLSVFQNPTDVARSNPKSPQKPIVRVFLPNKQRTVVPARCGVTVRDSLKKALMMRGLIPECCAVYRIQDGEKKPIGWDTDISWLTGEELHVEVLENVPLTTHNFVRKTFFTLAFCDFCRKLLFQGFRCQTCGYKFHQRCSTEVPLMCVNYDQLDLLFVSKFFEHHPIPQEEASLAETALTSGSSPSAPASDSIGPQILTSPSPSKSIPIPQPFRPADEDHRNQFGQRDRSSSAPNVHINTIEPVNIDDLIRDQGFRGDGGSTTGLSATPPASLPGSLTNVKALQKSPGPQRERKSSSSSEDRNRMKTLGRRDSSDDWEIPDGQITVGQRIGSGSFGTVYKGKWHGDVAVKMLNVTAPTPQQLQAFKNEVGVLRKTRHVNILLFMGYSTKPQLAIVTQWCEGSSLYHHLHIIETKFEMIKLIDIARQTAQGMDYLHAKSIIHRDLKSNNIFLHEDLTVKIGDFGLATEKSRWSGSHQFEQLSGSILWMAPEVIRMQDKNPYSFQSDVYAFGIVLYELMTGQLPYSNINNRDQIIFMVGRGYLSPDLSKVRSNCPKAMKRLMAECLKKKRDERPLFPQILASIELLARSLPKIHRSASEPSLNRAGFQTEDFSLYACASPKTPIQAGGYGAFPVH

**Q.** How did the IC50 [1] turn out when `COc1n[nH]c2ncc(NC(=O)c3c(Cl)ccc(OCc4ccncc4)c3F)cc12` [Example 39, 6-chloro-2-fluoro-N-(3-methoxy-1H-pyrazolo[3,4-b]pyridin-5-yl)-3-(pyridin-4-ylmethoxy)benzamide] was run?
**A.** 64.2 nM

**Q.** And the IC50 (bound stated)?
**A.** < 100 nM

**Q.** For `CN(C)CCOc1n[nH]c2ncc(NC(=O)c3c(Cl)ccc(OCc4ccccc4)c3F)cc12` [Example 17, 3-(benzyloxy)-6-chloro-N-(3-(2-(dimethylamino)ethoxy)-1H-pyrazolo[3,4-b]pyridin-5-yl)-2-fluorobenzamide], which IC50 [1] is on record?
**A.** 11.1 nM

**Q.** What about the IC50 (bound stated) of the same molecule?
**A.** < 100 nM

**Q.** What does the source list for `Cc1n[nH]c2ncc(NC(=O)c3c(Cl)ccc(OCc4ccccc4)c3F)cc12` [Example 34, 3-(benzyloxy)-6-chloro-2-fluoro-N-(3-methyl-1H-pyrazolo[3,4-b]pyridin-5-yl)benzamide]?
**A.** IC50 [1]: 4.83 nM; IC50 (bound stated): < 100 nM

**Q.** How did the IC50 [1] turn out when `COc1n[nH]c2ncc(NC(=O)c3c(Cl)ccc(OCc4cccc(C)n4)c3F)cc12` [Example 38, 6-chloro-2-fluoro-N-(3-methoxy-1H-pyrazolo[3,4-b]pyridin-5-yl)-3-((6-methylpyridin-2-yl)methoxy)benzamide] was run?
**A.** 15.1 nM

**Q.** And the IC50 (bound stated)?
**A.** < 100 nM

**Q.** With `COc1n[nH]c2ncc(NC(=O)c3cccc(OCc4ccccc4)c3C)cc12` [Example 22, 3-(benzyloxy)-N-(3-methoxy-1H-pyrazolo[3,4-b]yridine-5-yl)-2-methylbenzamide] as the molecule, how does the IC50 [1] read?
**A.** 585 nM

**Q.** What does the source list for `COc1n[nH]c2ncc(NC(=O)c3c(Cl)ccc(OCc4ccc(C)cn4)c3F)cc12` [Example 44, 6-chloro-2-fluoro-N-(3-methoxy-1H-pyrazolo[3,4-b]pyridin-5-yl)-3-((5-methylpyridin-2-yl)methoxy)benzamide]?
**A.** IC50 [1]: 0.64 nM; IC50 (bound stated): < 100 nM

**Q.** Which IC50 [1] does the source give for `COc1n[nH]c2ncc(NC(=O)c3c(Cl)ccc(OCc4ccccc4)c3Cl)cc12` [Example 25, 3-(benzyloxy)-2,6-dichloro-N-(3-methoxy-1H-pyrazolo[3,4-b]pyridin-5-yl)benzamide] here?
**A.** 12.3 nM

**Q.** And the IC50 (bound stated)?
**A.** < 100 nM

**Q.** With `COc1n[nH]c2ncc(NC(=O)c3c(Cl)ccc(OCc4ccc(C#N)cc4)c3F)cc12` [Example 51, 6-chloro-3-(4-cyanobenzyloxy)-2-fluoro-N-(3-methoxy-1H-pyrazolo[3,4-b]pyridin-5-yl)benzamide] as the molecule, how does the IC50 [1] read?
**A.** 2.01 nM

**Q.** What about the IC50 (bound stated) of the same molecule?
**A.** < 100 nM

**Q.** Which results are given for `COc1n[nH]c2ncc(NC(=O)c3c(C)ccc(OCc4ccccc4)c3F)cc12` [Example 5, 3-(benzyloxy)-2-fluoro-N-(3-methoxy-1H-pyrazolo[3,4-b]pyridin-5-yl)-6-methylbenzamide]?
**A.** IC50 [1]: 1.06 nM; IC50 (bound stated): < 100 nM

**Q.** `COc1n[nH]c2ncc(NC(=O)c3c(Cl)ccc(OCc4ccc(S(C)(=O)=O)cc4)c3F)cc12` [Example 49] was tested. Which IC50 [1] did it give?
**A.** 3.91 nM

**Q.** And the IC50 (bound stated)?
**A.** < 100 nM

**Q.** `COc1n[nH]c2ncc(NC(=O)c3c(Cl)ccc(OCc4ccc5ncccc5c4)c3F)cc12` [Example 69, 6-chloro-2-fluoro-N-(3-methoxy-1H-pyrazolo[3,4-b]pyridin-5-yl)-3-(quinolin-6-ylmethoxy)benzamide] was tested. Which IC50 [1] did it give?
**A.** 1.66 nM

**Q.** And the IC50 (bound stated)?
**A.** < 100 nM

**Q.** How did the IC50 [1] turn out when `COc1n[nH]c2ncc(NC(=O)c3c(Cl)ccc(OCc4ccccc4)c3F)cc12` [Example 4, 3-(benzyloxy)-6-chloro-2-fluoro-N-(3-methoxy-1H-pyrazolo[3,4-b]pyridin-5-yl)benzamide] was run?
**A.** 0.62 nM

**Q.** What about the IC50 (bound stated) of the same molecule?
**A.** < 100 nM

**Q.** How did the IC50 [1] turn out when `COc1n[nH]c2ncc(NC(=O)c3c(Cl)ccc(OCc4ccc(Cl)cc4F)c3F)cc12` [Example 66, 6-chloro-3-(4-chloro-2-fluorobenzyloxy)-2-fluoro-N-(3-methoxy-1H-pyrazolo[3,4-b]pyridin-5-yl)benzamide] was run?
**A.** 1.5 nM

**Q.** What about the IC50 (bound stated) of the same molecule?
**A.** < 100 nM

**Q.** Which IC50 [1] does the source give for `COc1n[nH]c2ncc(NC(=O)c3c(C)ccc(OCc4ccc(Cl)cc4)c3F)cc12` [Example 72, 3-(4-chlorobenzyloxy)-2-fluoro-N-(3-methoxy-1H-pyrazolo[3,4-b]pyridin-5-yl)-6-methylbenzamide] here?
**A.** 0.4 nM

**Q.** What about the IC50 (bound stated) of the same molecule?
**A.** < 100 nM

**Q.** What does the source list for `COc1n[nH]c2ncc(NC(=O)c3cc(OCc4ccccc4)ccc3Cl)cc12` [Example 23, 5-(benzyloxy)-2-chloro-N-(3-methoxy-1H-pyrazolo[3,4-b]pyridin-5-yl)benzamide]?
**A.** IC50 [1]: 4 nM; IC50 (bound stated): < 100 nM

**Q.** How did the IC50 [1] turn out when `COc1n[nH]c2ncc(NC(=O)c3c(Cl)ccc(OCc4cncnc4)c3F)cc12` [Example 68, 6-chloro-2-fluoro-N-(3-methoxy-1H-pyrazolo[3,4-b]pyridin-5-yl)-3-(pyrimidin-5-ylmethoxy)benzamide] was run?
**A.** 658 nM

**Q.** Which IC50 [1] does the source give for `COc1n[nH]c2ncc(NC(=O)c3c(Cl)ccc(OCc4cnccn4)c3F)cc12` [Example 57, 6-chloro-2-fluoro-N-(3-methoxy-1H-pyrazolo[3,4-b]pyridin-5-yl)-3-(pyrazin-2-ylmethoxy)benzamide] here?
**A.** 26 nM

**Q.** And the IC50 (bound stated)?
**A.** < 100 nM

**Q.** What does the source list for `O=C(Nc1cnc2[nH]nc(-c3ccco3)c2c1)c1c(Cl)ccc(OCc2ccccc2)c1F` [Example 9, 3-(benzyloxy)-6-chloro-2-fluoro-N-(3-(furan-2-yl)-1H-pyrazolo[3,4-b]pyridin-5-yl)benzamide]?
**A.** IC50 [1]: 1.17 nM; IC50 (bound stated): < 100 nM

**Q.** Which IC50 [1] does the source give for `O=C(Nc1cnc2[nH]nc(OCCO)c2c1)c1c(Cl)ccc(OCc2ccccc2)c1F` [Example 15, 3-(benzyloxy)-6-chloro-2-fluoro-N-(3-(2-hydroxyethoxy)-1H-pyrazolo[3,4-b]pyridine-5-yl)benzamide] here?
**A.** 2.63 nM

**Q.** What about the IC50 (bound stated) of the same molecule?
**A.** < 100 nM

**Q.** With `COc1n[nH]c2ncc(NC(=O)c3c(Cl)ccc(OCc4cccnc4)c3F)cc12` [Example 36, 6-chloro-2-fluoro-N-(3-methoxy-1H-pyrazolo[3,4-b]pyridin-5-yl)-3-(pyridin-3-ylmethoxy)benzamide] as the molecule, how does the IC50 [1] read?
**A.** 37.5 nM

**Q.** And the IC50 (bound stated)?
**A.** < 100 nM

**Q.** For `CC(=O)Nc1n[nH]c2ncc(NC(=O)c3c(Cl)ccc(OCc4ccccc4)c3F)cc12` [Example 78, N-(3-acetamido-1H-pyrazolo[3,4-b]pyridin-5-yl)-3-(benzyloxy)-6-chloro-2-fluorobenzamide], which IC50 [1] is on record?
**A.** 5.19 nM

**Q.** And the IC50 (bound stated)?
**A.** < 100 nM

**Q.** Which results are given for `COc1n[nH]c2ncc(NC(=O)c3cccc(OCc4ccccc4)c3Cl)cc12` [Example 21, 3-(benzyloxy)-2-chloro-N-(3-methoxy-1H-pyrazolo[3,4-b]pyridin-5-yl)benzamide]?
**A.** IC50 [1]: 72.4 nM; IC50 (bound stated): < 100 nM

**Q.** For `CC(C)c1n[nH]c2ncc(NC(=O)c3c(Cl)ccc(OCc4ccccc4)c3F)cc12` [Example 10, 3-(benzyloxy)-6-chloro-2-fluoro-N-(3-isopropyl-1H-pyrazolo[3,4-b]pyridin-5-yl)benzamide], which IC50 [1] is on record?
**A.** 2.29 nM

**Q.** And the IC50 (bound stated)?
**A.** < 100 nM

**Q.** `COc1n[nH]c2ncc(NC(=O)c3c(Cl)ccc(OCc4ccc(Cl)cn4)c3F)cc12` [Example 45, 6-chloro-3-((5-chloropyridin-2-yl)methoxy)-2-fluoro-N-(3-methoxy-1H-pyrazolo[3,4-b]pyridin-5-yl)benzamide] was tested. Which IC50 [1] did it give?
**A.** 0.53 nM

**Q.** And the IC50 (bound stated)?
**A.** < 100 nM

**Q.** `COc1n[nH]c2ncc(NC(=O)c3c(C)ccc(OCc4ccc(C(F)(F)F)cc4)c3F)cc12` [Example 73, 2-fluoro-N-(3-methoxy-1H-pyrazolo[3,4-b]pyridin-5-yl)-6-methyl-3-(4-(trifluoromethyl)benzyloxy)benzamide] was tested. Which IC50 [1] did it give?
**A.** 0.86 nM

**Q.** And the IC50 (bound stated)?
**A.** < 100 nM

**Q.** For `COc1n[nH]c2ncc(NC(=O)c3c(F)ccc(OCc4ccccc4)c3Cl)cc12` [Example 33, 3-(benzyloxy)-2-chloro-6-fluoro-N-(3-methoxy-1H-pyrazolo[3,4-b]pyridin-5-yl)benzamide], which IC50 [1] is on record?
**A.** 17.2 nM

**Q.** What about the IC50 (bound stated) of the same molecule?
**A.** < 100 nM

**Q.** What does the source list for `COc1n[nH]c2ncc(NC(=O)c3c(Cl)ccc(OCc4cccc5[nH]ccc45)c3F)cc12` [Example 76, 3-((1H-indol-4-yl)methoxy)-6-chloro-2-fluoro-N-(3-methoxy-1H-pyrazolo[3,4-b]pyridin-5-yl)benzamide]?
**A.** IC50 [1]: 13 nM; IC50 (bound stated): < 100 nM

**Q.** Which results are given for `CCc1n[nH]c2ncc(NC(=O)c3c(Cl)ccc(OCc4ccccc4)c3F)cc12` [Example 6, 3-(benzyloxy)-6-chloro-N-(3-ethyl-1H-pyrazolo[3,4-b]pyridin-5-yl)-2-fluorobenzamide]?
**A.** IC50 [1]: 2.52 nM; IC50 (bound stated): < 100 nM

**Q.** What does the source list for `COc1n[nH]c2ncc(NC(=O)c3c(Cl)ccc(OCc4ccc(C(F)(F)F)cc4)c3F)cc12` [Example 19, 6-chloro-2-fluoro-N-(3-methoxy-1H-pyrazolo[3,4-b]pyridin-5-yl)-3-(4-(trifluoromethyl)benzyloxy)benzamide]?
**A.** IC50 [1]: 2.04 nM; IC50 (bound stated): < 100 nM

**Q.** `COc1n[nH]c2ncc(NC(=O)c3c(F)cc(F)c(OCc4ccccc4)c3F)cc12` [Example 32, 3-(benzyloxy)-2,4,6-trifluoro-N-(3-methoxy-1H-pyrazolo[3,4-b]pyridin-5-yl)benzamide] was tested. Which IC50 [1] did it give?
**A.** 34.9 nM

**Q.** What about the IC50 (bound stated) of the same molecule?
**A.** < 100 nM
